Non-standard residues stand in square brackets, D forms with d. Residues, ends and D or L forms follow the SMILES beside them. pGlu = O=C1CC[C@@H](C(=O)O)N1; azaGly = NNC(=O)O

The subject of series [1] is luliberin. The conditions noted are these: literature: Coy et al., Molecular and Cellular Endocrinology, 1976, 5, 201-208; cited from earlier work.
Series [2] in a line: overt toxic effects at multiples of the minimum active dose. Format: in vivo. The conditions noted are these: dosed at 20 times its minimum effective dose.

Consider [D-Phe^2, D-Phe^6 ] luliberin, for which, in series [1], the luliberin antagonist properties entry is given as “has luliberin antagonist properties”.

On to `CC(C)C[C@H](NC(=O)[C@@H](Cc1ccccc1)NC(=O)[C@H](Cc1ccc(O)cc1)NC(=O)[C@H](CO)NC(=O)[C@H](Cc1c[nH]c2ccccc12)NC(=O)[C@@H](Cc1ccccc1)NC(=O)[C@@H]1CCC(=O)N1)C(=O)N[C@@H](CCCNC(=N)N)C(=O)N1CCC[C@H]1C(=O)NNC(N)=O` [Example 1, L-pyroglutamyl-D-phenylalanyl-L-tryptophyl-L-seryl-L-tyrosyl-D-phenylalanyl-L-leucyl-L-arginyl-L-prolylazaglycine amide] ([pGlu][dF]WSY[dF]LRP[azaGly]-NH2), for which the overt toxic effects entry in series [2] is “no overt toxic effects”.

These data come from US4124703A, “Luliberin analogs” (Imperial Chemical Industries Limited, priority 1976, dated 1978).
